Legend:
BAFFR–BAFF = target: T1, BAFFR–BAFF (Homo sapiens, UniProt Q9Y275); assay: cell-free ELISA-type binding inhibition assay, BAFFR–BAFF
T1 construct: purchased Enzo Life Sciences
Method: (§1) In parallel with the CD40–CD154 assay, the ability of these compounds to inhibit other TNFSFR–TNFSF PPIs, including OX40–OX40L, BAFFR–BAFF, and TNF-R1–TNF-α, was also assessed (Figure 3B–D).
(§2) Binding inhibition assays were performed in a 96-well cell-free format as described before. Briefly, microtiter plates (Nunc F Maxisorp, 96-well; Thermo Fisher Scientific, Waltham, MA, USA) were coated overnight at 4 °C with 100 μL/well of Fc-conjugated receptors diluted in PBS pH 7.2. This was followed by blocking with 200 μL/well of blocking solution (PBS pH 7.2, 0.05% Tween-20, 1% BSA) for 1 h at RT. Then, plates were washed twice using washing solution (PBS pH 7.4, 0.05% Tween-20) and tapped dry before the addition of the appropriate FLAG tagged ligands along with different concentrations of tested dyes diluted in binding buffer (100 mM HEPES, 0.005% BSA pH 7.2) to give a total volume of 100 μL/well. After 1 h incubation, three washes were conducted, and anti-FLAG HRP conjugate was used to detect the bound FLAG-tagged ligand. Plates were washed four times before the addition of 120 μL/well of HRP substrate TMB (3,3′,5,5′-tetramethylbenzidine) and kept in the dark for up to 15 min. The reaction was stopped using 30 μL of 1M H2SO4, and the absorbance value was read at 450 nm. The concentrations of receptors used were 0.3 μg/mL for CD40, TNF-R1, and BAFFR; 0.6 μg/mL for OX40. The concentrations of the ligands were fixed at 0.02 μg/mL for CD154 and TNF-α, 0.06 μg/mL for OX40L, and 0.03 μg/mL for BAFF. These values were selected following preliminary testing to optimize response (i.e., to produce a high-enough signal at conditions close to half-maximal response, EC50). […] To verify that inhibition is not due to colloidal aggregation, CD40 binding inhibition was also measured in the presence of the non-ionic detergent Triton-X 100 (0.01%), as recommended for the detection of such effects.
(§3) All binding inhibition and cell assays were tested in duplicate or triplicate per plates, and assays were performed as at least three independent experiments. As before, binding and cytotoxicity data were converted to percent inhibition and fitted with standard log inhibitor vs. normalized response models using nonlinear regression in GraphPad Prism (GraphPad, La Jolla, CA, USA) to establish half-maximal (median) inhibitory concentration (IC50) or median lethal concentration (LC50) values. Cell assay data were fitted with a similar model that also allowed for a variable slope using the log inhibitor vs. normalized response (variable slope) model from Prism with a Hill slope (n) shared across all compounds. Cell assays and draining lymph node data were analyzed by one-way repeated-measures analysis of variance (ANOVA) followed by Dunnett’s multiple comparison test as a post hoc test for individual differences using GraphPad Prism and a significance level of p < 0.05 for all comparisons.
(§4) Data are (counterclockwise) for human CD40–CD154 (CD40L) (A); OX40–OX40L (B); BAFFR–BAFF (C); and TNF-R1–TNFα (D) and were fitted with standard binding curves. Data are average ± SD (normalized to percent binding) for n = 3 independent experiments with duplicates for each condition.

CD40–CD154 (CD40L) = target: T2, CD40–CD154 (CD40L) (Homo sapiens, UniProt P29965); assay: cell-free ELISA-type binding inhibition assay, CD40–CD154; details: for IC50: cell-free CD40–CD154 binding inhibition, read-out: CD40 IC50; for selectivity toward CD40–CD154 against all other PPIs tested: vs OX40–OX40L, BAFFR–BAFF, TNF-R1–TNF-α
T2 construct: purchased Enzo Life Sciences
T2 sequence (P29965 116-261 limits assumed): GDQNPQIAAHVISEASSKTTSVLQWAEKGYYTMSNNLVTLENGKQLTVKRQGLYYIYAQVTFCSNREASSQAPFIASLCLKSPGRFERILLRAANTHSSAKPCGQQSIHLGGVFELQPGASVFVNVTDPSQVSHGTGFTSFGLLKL
Excerpt: As a first assessment, the CD40–CD154 inhibitory activity of compounds 6–19 (Figure 2, Table 1) was quantified using a cell-free in vitro binding inhibition assay as described before. Data fitted with typical sigmoidal concentration dependence curves (log inhibitor versus response model in GraphPad Prism, Hill slope n = 1) are summarized in Figure 3A. […] Polymolecular conglomeration and/or aggregation is often a cause of promiscuous inhibition in screening assays. Therefore, just as in our previous work, we checked for this, and we confirmed for several compounds that inhibition due to aggregation is not the case by retesting inhibitory activity in the presence of a non-ionic detergent (Triton-X 100, 0.01%) as recommended for the detection of such effects.
as §2, §3, §4

OX40–OX40L = target: T3, OX40–OX40L (Homo sapiens, UniProt P23510); assay: cell-free ELISA-type binding inhibition assay, OX40–OX40L
T3 construct: purchased Enzo Life Sciences
T3 sequence (P23510 51-183 limits assumed): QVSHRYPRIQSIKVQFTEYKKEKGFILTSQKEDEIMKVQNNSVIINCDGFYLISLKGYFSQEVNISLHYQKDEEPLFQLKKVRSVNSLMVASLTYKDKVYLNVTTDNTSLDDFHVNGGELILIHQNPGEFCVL
Method: as §1, §2, §3, §4

T1 sequence (Q9Y275 134-285 limits assumed): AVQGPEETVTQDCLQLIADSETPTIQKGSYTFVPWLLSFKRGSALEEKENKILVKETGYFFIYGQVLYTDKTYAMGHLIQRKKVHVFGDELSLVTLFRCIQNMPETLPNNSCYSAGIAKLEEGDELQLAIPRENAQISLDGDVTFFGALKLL

With `COC(=O)c1ccc(-c2ccc(C(=O)Nc3ccc(-c4ccc(C(=O)Nc5cccc6cccc(S(=O)(=O)O)c56)cc4)cc3)cc2)cc1` [Compound 15, 8-(4′-(4′-(Methoxycarbonyl)-[1,1′-biphenyl]-4-carboxamido)-[1,1′-biphenyl]-4-carboxamido)naphthalene-1-sulfonic acid] the IC50 (BAFFR–BAFF) was 1520 nM, the IC50 (CD40–CD154 (CD40L)) was 19 nM and the “selectivity toward CD40–CD154 against all other PPIs tested” value (CD40–CD154 (CD40L)) was > 30 fold. For the same molecule, the “selectivity toward CD40–CD154 against all other PPIs tested” value (CD40–CD154 (CD40L); listed as DRI-C21095) was “more than thirty-fold” and the IC50 (OX40–OX40L) was 1010 nM.

Work on `O=C(Nc1ccc(-c2ccc(C(=O)Nc3cccc4cccc(S(=O)(=O)O)c34)cc2)nc1)c1ccc([N+](=O)[O-])cc1` [Compound 18, 8-(4-(5-(4-Nitrobenzamido)pyridin-2-yl)benzamido)naphthalene-1-sulfonic acid] yielded an IC50 (BAFFR–BAFF) of 8070 nM, an IC50 (CD40–CD154 (CD40L)) of 1340 nM and an IC50 (OX40–OX40L) of 5480 nM.

With `O=C(Nc1ccc(-c2ccc(C(=O)Nc3cccc4cccc(S(=O)(=O)O)c34)cc2)cc1)c1ccc([N+](=O)[O-])cc1` [Compound 6, 8-(4′-(4-Nitrobenzamido)biphenyl-4-ylcarboxamido)naphthalene-1-sulfonic acid] the IC50 (BAFFR–BAFF) was 328 nM, the IC50 (CD40–CD154 (CD40L)) was 87 nM and the IC50 (OX40–OX40L) was 318000 nM.

Source: PMC5978685, “Design, Synthesis, and Evaluation of Novel Immunomodulatory Small Molecules Targeting the CD40–CD154 Costimulatory Protein-Protein Interaction” (Molecules : A Journal of Synthetic Chemistry and Natural …, 2018)
